From US20100190688A1, “Tetrapeptide analogs” (priority 2004, published 2010)
Structures can show the parent of a compound that is named as a salt.

How the values were obtained:
[1] = molecular target: T1, BIR3-mediated Caspase-9 inhibition (UniProt Q9R0I6); experiment: Caspase-9 rescue assay (relief of BIR3-mediated Caspase-9 inhibition); type: biochemical, human Caspase-9; Rat or Chicken BIR3; settings: average EC50, substrate Ac-LEHD-amc, pH 6.5
T1 construct: Nothing is printed for this assay
Experimental: Additionally the compounds and compositions can be evaluated for their ability to achieve relief of BIR3-mediated Caspase-9 inhibition by measuring Caspase-9 reactivation. The fluorogenic substrate Ac-LEHD-7-amido-4-methylcoumarin is used in these methods. EC50 values of tested BIR3 inhibitors or Caspase-9 rescuers is calculated from the percentage of Caspase-9 reactivation in the mixtures containing serially diluted concentrations of tested compound. Typically, 10-point curves are generated for such EC50 determination.
Relief of BIR3-mediated Caspase-9 inhibition by BIR3 inhibitors was assayed by measuring Caspase-9 reactivation using the fluorogenic substrate Ac-LEHD-7-amido-4-methylcoumarin. A truncated form of human Caspase-9 that lacks the N-terminal Caspase recruitment domain (EPro-Caspase-9 or p35/p12) was used in the assay. This form of the enzyme has the full catalytic activity and the same substrate specificity as the full-length protein in the Apaf-1/Cytochrome C/dATP/Caspase-9 reconstituted system. Rat or Chicken BIR3 was used in this assay. […] This mixture was incubated for 40 min to allow equilibration at 25° C., and the assay progression was subsequently followed by monitoring the formation of fluorescent 7-amido-4-methylcoumarin over time at 460 nm using an excitation wavelength of 360 nm. […] EC50 values of tested BIR3 inhibitors or Caspase-9 rescuers were calculated from the percentage of Caspase-9 reactivation in the mixtures containing serially diluted concentrations of tested compound.

BIR3 domain of rat XIAP = BIR3 domain of rat XIAP (Rattus norvegicus, UniProt Q9R0I6); experiment: Fluorescence polarization assay, binding to BIR3 from rat XIAP
Chain of BIR3 domain of rat XIAP (Q9R0I6 241-355): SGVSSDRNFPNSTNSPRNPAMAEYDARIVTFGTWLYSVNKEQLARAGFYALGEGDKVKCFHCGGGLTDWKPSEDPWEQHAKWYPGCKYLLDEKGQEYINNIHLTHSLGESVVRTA
Experimental: In fluorescence polarization assays a fluorescent probe is used. The binding affinity of compounds to BIR3 is measured by competitive displacement of a fluorescent probe using fluorescence polarization anisotropy. […] In other embodiments, the probe used is 6-(6-Hydroxy-3-oxo-3H-xanthen-9-yl)-N-(5-(2-methylamino-propionylamino)-6-oxo-6-[4-(1,2,3,4-tetrahydro-naphthalen-1-ylcarbamoyl)-thiazolidin-3-yl]-hexyl)-isophthalamic acid.
The binding affinity of compounds provided herein for rat BIR3 was measured by competitive displacement of a fluorescent probe using fluorescence polarization anisotropy. […] Control conditions were set up on each plate and include free probe 1 alone (5 nM), fully bound probe (5 μM BIR3+5 nM probe 1) and binding buffer blank. The-EC50 of binding was computed from a 4-parameter fit of the measured anisotropies using the SoftMax Pro 4.6 software package (Molecular Dynamics, Sunnyvale, Calif.).
Alternatively, probe 1 was substituted with probe 2: 6-(6-Hydroxy-3-oxo-3H-xanthen-9-yl)-N-{5-(2-methylamino-propionylamino)-6-oxo-6-[4-(1,2,3,4-tetrahydro-naphthalen-1-ylcarbamoyl)-thiazolidin-3-yl]-hexyl}-isophthalamic acid, for rat BIR3 and the concentrations of assay components changed. […] Controls were adjusted accordingly.

| SMILES | EC50 [1] [nM] | EC50 (BIR3 domain of rat XIAP) [nM] |
| --- | --- | --- |
| CNC(C)C(=O)NC(C(=O)N(CCc1ccccc1)CC(=O)NC1CCCc2ccccc21)C(C)(C)C (centres unmarked) [3,3-Dimethyl-2-(2-methylamino-propionylamino)-N-phenethyl-N-[(1,2,3,4-tetrahydro-naphthalen-1-ylcarbamoyl)-methyl]-butyramide TFA salt] | > 10000 | 1000 to 10000 |
| CNC(C)C(=O)NC(C(=O)N1CSCC1C(=O)NC(c1ccccc1)c1ccccc1)C(C)C (centres unmarked) [3-[3-Methyl-2-(2-methylamino-propionylamino)-butyryl]-thiazolidine-4-carboxylic acid benzhydryl-amide] | < 1000 | < 1000 |
| CN[C@@H](C)C(=O)N[C@H]1CCCC2CC[C@@H](C(=O)N[C@@H]3CCCc4ccccc43)N2C1=O (some centres unmarked) [6-(2-Methylamino-propionylamino)-5-oxo-octahydro-pyrrolo[1,2-a]azepine-3-carboxylic acid (1,2,3,4-tetrahydro-naphthalen-1-yl)-amide] | < 1000 | < 1000 |
| CNC(C)C(=O)NC(C(=O)NC(CCCCN(C)C)C(=O)NC1CCCc2ccccc21)C(C)C (centres unmarked) [6-Dimethylamino-2-[3-methyl-2-(2-methylamino-propionylamino)-butyrylamino]-hexanoic acid (1,2,3,4-tetrahydro-naphthalen-1-yl)-amide] | < 1000 | < 1000 |
| CNC(C)C(=O)NC(C(=O)NC(CCCCNS(=O)(=O)c1ccc([N+](=O)[O-])cc1)C(=O)NC1CCCc2ccccc21)C(C)C (centres unmarked) [2-[3-Methyl-2-(2-methylamino-propionylamino)-butyrylamino]-6-(4-nitro-benzenesulfonylamino)-hexanoic acid (1,2,3,4-tetrahydro-naphthalen-1-yl)-amide] | < 1000 | < 1000 |
| CNC(C)C(=O)NC(C(=O)NC(CCOCc1ccccc1)C(=O)NC1CCCc2ccccc21)C(C)C (centres unmarked) [N-[3-Benzyloxy-1-(1,2,3,4-tetrahydro-naphthalen-1-ylcarbamoyl)-propyl]-3-methyl-2-(2-methylamino-propionylamino)-butyramide] | 1000 to 10000 | < 1000 |
| CC(NCC1CC1)C(=O)NC(C(=O)N1CCCC1C(=O)NC1CCCc2ccccc21)C(C)(C)C (centres unmarked) [1-{2-[2-(Cyclopropylmethyl-amino)-propionylamino]-3,3-dimethyl-butyryl}-pyrrolidine-2-carboxylic acid (1,2,3,4-tetrahydro-naphthalen-1-yl)-amide] | 1000 to 10000 | < 1000 |
| CNC(C)C(=O)NC(C(=O)NC(COCc1ccccc1)C(=O)NC1CCCc2ccccc21)C(C)C (centres unmarked) [N-[2-Benzyloxy-1-(1,2,3,4-tetrahydro-naphthalen-1-ylcarbamoyl)-ethyl]-3-methyl-2-(2-methylamino-propionylamino)-butyramide] | 1000 to 10000 | < 1000 |
| CNC(C)C(=O)NC(C(=O)N1CCCC1C(=O)NN(C)c1ccccc1)C(C)(C)C (centres unmarked) [N-{2,2-Dimethyl-1-[2-(N′-methyl-N′-phenyl-hydrazinocarbonyl)-pyrrolidine-1-carbonyl]-propyl}-2-methylamino-propionamide] | 1000 to 10000 | < 1000 |
| CNC(C)C(=O)NC(C(=O)N1Cc2ccccc2CC1C(=O)NC(c1ccccc1)c1ccccc1)C(C)C (centres unmarked) [2-[3-Methyl-2-(2-methylamino-propionylamino)-butyryl]-1,2,3,4-tetrahydro-isoquinoline-3-carboxylic acid benzhydryl-amide] | 1000 to 10000 | < 1000 |
